# Measurements from ChEMBL document CHEMBL3351284, “Internalization and stability of a thymidylate synthase Peptide inhibitor in ovarian cancer cells” (J Med Chem, 2014).
# Calls of active or inactive are those of the source. The calls are words filed in the database; no cut-off is given here.
# Test system: C13
# Test: Growth inhibition of cisplatin-resistant human C13 cells at 5 uM after 72 hrs by flow-cytometric analysis
# Type: functional, cell-based
smiles,measurement,value
O=c1[nH]cc(F)c(=O)[nH]1,growth inhibition (GI),Active
